# Data as given in patent US9499493B2, “2,4-pyrimidinediamine compounds and their uses” (Rigel Pharmaceuticals, Inc., priority 2002, dated 2016).
# Tests used:
# [1] = tested on: cultured human mast cells (CHMC); test: CHMC low cell density IgE activation: tryptase assay; format: cell-based; conditions: anti-IgE
# How it was run: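 Degranulation is read as supernatant tryptase activity, using tryptase substrate incubated 30 min at room temperature. Before this, CHMC at low density (1000-1500 cells/well) rest 1 hr at 37° C and are triggered with anti-IgE for 30 min at 37° C.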
# [2] = tested on: cultured human mast cells (CHMC); test: CHMC low cell density ionomycin activation: tryptase assay; format: cell-based
Compound,IC50 [1],IC50 [2],"IC50 ([1]; Homo sapiens, Mast cell)","IC50 ([2]; Homo sapiens, Mast cell)"
"Fc1cnc(Nc2ccc3[nH]ncc3c2)nc1Nc1ccc(Cl)c(Cl)c1 [R935371, N4-(3,4-Dichlorophenyl)-5-fluoro-N2-(indazoline-5-yl)-2,4-pyrimidinediamine]",0.794 µM,> 10 µM,–,–
"Cn1ncc2cc(Nc3ncc(F)c(Nc4ccc(Cl)nc4)n3)ccc21 [R935375, N4-(6-Chloro-3-pyridyl)-5-fluoro-N2-(1-methylindazoline-5-yl)-2,4-pyrimidinediamine]",10 µM,> 10 µM,–,–
"COc1ccc(Nc2ncc([N+](=O)[O-])c(Nc3ccc(OC)c(OC)c3)n2)cc1OC [R940089, N2,N4-Bis-(3,4-dimethoxyphenyl)-5-nitro-2,4-pyrimidinediamine]",–,–,> 10 µM,> 10 µM
"CCOc1ccc(Nc2ncc([N+](=O)[O-])c(Nc3ccc(OCC)cc3)n2)cc1 [R940090, N2,N4-Bis-(4-ethoxyphenyl)-5-nitro-2,4-pyrimidinediamine]",–,–,> 10 µM,> 10 µM
"CCOC(=O)COc1cccc(Nc2ncc(F)c(Nc3cc(C)c(O)c(C)c3)n2)c1 [R940253, N4-(3,5-Dimethyl-4-hydroxyphenyl)-N2-(3-ethoxycarbonylmethyleneoxyphenyl)-5-fluoro-2,4-pyrimidinediamine]",1.01 µM,> 10 µM,–,–
"Cc1cc(Nc2nc(Nc3cccc(OCC(=O)N4CCOCC4)c3)ncc2F)cc(C)c1O [R940254, N4-(3,5-Dimethyl-4-hydroxyphenyl)-5-fluoro-N2-[3-(N-morpholino)carbonylmethyleneoxyphenyl]-2,4-pyrimidinediamine]",0.986 µM,> 10 µM,–,–
"COc1ccc(Nc2nc(NC3CCN(Cc4ccccc4)CC3)ncc2F)cc1OC [R940263, N2-[4-(N-Benzylpiperidino)]-N4-(3,4-dimethoxyphenyl)-5-fluoro-2,4-pyrimidinediamine]",> 10 µM,> 10 µM,–,–
"Oc1cccc(Nc2nc(NC3CCN(Cc4ccccc4)CC3)ncc2F)c1 [R940264, N2-[4-(N-Benzylpiperidino)]-5-fluoro-N4-(3-hydroxyphenyl)-2,4-pyrimidinediamine]",10 µM,> 10 µM,–,–
"CCOC(=O)COc1cccc(Nc2nc(Nc3cccc(C(C)(C)C)c3)ncc2F)c1 [R940266, N2-(3-tert-Butylphenyl)-N4-(3-ethoxycarbonylmethyleneoxyphenyl)-5-fluoro-4-pyrimidinediamine]",> 10 µM,> 10 µM,–,–
"CNC(=O)COc1cccc(Nc2nc(Nc3cccc(C(C)(C)C)c3)ncc2F)c1 [R940267, N2-(3-tert-Butylphenyl)-N4-[3-(N-methylamino)carbonylmethyleneoxyphenyl]-5-fluoro-2,4-pyrimidinediamine]",3.15 µM,> 10 µM,–,–
"CCOC(=O)COc1cccc(Nc2ncc(F)c(Nc3cccc(C(C)(C)C)c3)n2)c1 [R940270, N4-(3-tert-Butylphenyl)-N2-(3-ethoxycarbonylmethyleneoxyphenyl)-5-fluoro-2,4-pyrimidinediamine]",2.14 µM,8.74 µM,–,–
"CC(C)(C)c1cccc(Nc2nc(Nc3cccc(OCC(=O)O)c3)ncc2F)c1 [R940280, N4-(3-tert-Butylphenyl)-N2-[3-carboxymethyleneoxyphenyl]-5-fluoro-2,4-pyrimidinediamine]",7 µM,> 10 µM,–,–
"CCOC(=O)COc1cccc(Nc2ncc(F)c(Nc3ccc4c(c3)C(=O)OC4)n2)c1 [R940285, N2-[3-Ethoxycarbonylmethyleneoxyphenyl]-N4-(3,3-dihydroisobenzofuranyl-1-one-6-yl)-5-fluoro-2,4-pyrimidinediamine]",3.5 µM,> 10 µM,–,–
"O=C(COc1cccc(Nc2ncc(F)c(Nc3ccc4c(c3)C(=O)OC4)n2)c1)NCC(O)CO (stereo not shown) [R940293, N4-(3,3-Dihydroisobenzofuran-1-one-6-yl)-N2-[3-(N-2,3-dihydroxypropylamino)carbonylmethyleneoxyphenyl]-5-fluoro-2,4-pyrimidinediamine]",> 10 µM,> 10 µM,–,–
"COC(=O)c1cc2cc(Nc3ncc(F)c(Nc4ccc5c(c4)C(=O)OC5)n3)ccc2o1 [R940294, N4-(3,3-Dihydroisobenzofuranyl-1-one-6-yl)-5-fluoro-N2-(2-methoxycarbonylbenzofur-5-yl)-2,4-pyrimidinediamine]",1.37 µM,> 10 µM,–,–
"CNC(=O)COc1cccc(Nc2ncc(F)c(Nc3cccc(C(N)=O)c3)n2)c1 [R940299, 5-Fluoro-N2-[3-(methylaminocarbonylmethyleneoxy)phenyl]-N4-(3-aminocarbonylphenyl)-2,4-pyrimidinediamine]",2.5 µM,> 10 µM,–,–
"CNC(=O)COc1cccc(Nc2ncc(F)c(Nc3ccc(OC)c(C(=O)OC)c3)n2)c1 [R940300, 5-Fluoro-N2-[3-(methylaminocarbonylmethyleneoxy)phenyl]-N4-(3-methyloxycarbonyl-4-methoxyphenyl)-2,4-pyrimidinediamine]",10 µM,> 10 µM,–,–
"CNC(=O)COc1cccc(Nc2ncc(F)c(Nc3ccc(OC)c(C(=O)NC)c3)n2)c1 [R940306, 5-Fluoro-N2-[3-(methylaminocarbonylmethyleneoxy)phenyl]-N4-(3-methylaminocarbonyl-4-methoxyphenyl)-2,4-pyrimidinediamine]",1.1 µM,> 10 µM,–,–

# More lines, now with the values ahead:
IC50 [1],IC50 [2],"IC50 ([1]; Homo sapiens, Mast cell)","IC50 ([2]; Homo sapiens, Mast cell)",Compound
0.409 µM,> 10 µM,–,–,"OCCCn1ncc2cc(Nc3ncc(F)c(Nc4cccc(OC(F)(F)F)c4)n3)ccc21 [R935362, 5-Fluoro-N2-[1-(3-hydroxypropyl)indazoline-5-yl]-N4-(3-trifluoromethoxyphenyl)-2,4-pyrimidinediamine]"
0.563 µM,> 10 µM,–,–,"Fc1cnc(Nc2ccc3[nH]ncc3c2)nc1Nc1cccc(OC(F)(F)F)c1 [R935364, 5-Fluoro-N2-(indazoline-5-yl)-N4-(3-trifluoromethoxyphenyl)-2,4-pyrimidinediamine]"
0.373 µM,> 10 µM,–,–,"Fc1cnc(Nc2ccc3[nH]ncc3c2)nc1Nc1ccc(Cl)cc1 [R935365, N4-(4-Chlorophenyl)-5-fluoro-N2-(indazoline-5-yl)-2,4-pyrimidinediamine]"
0.216 µM,> 10 µM,–,–,"Fc1cnc(Nc2ccc3[nH]ncc3c2)nc1Nc1ccc(OC(F)(F)F)c(Cl)c1 [R935366, N4-(3-Chloro-4-trifluoromethoxyphenyl)-5-fluoro-N2-(indazoline-5-yl)-2,4-pyrimidinediamine]"
0.082 µM,> 10 µM,–,–,"Fc1cnc(Nc2ccc3cn[nH]c3c2)nc1Nc1ccc(OC(F)(F)F)c(Cl)c1 [R935368, N4-(3-Chloro-4-trifluoromethoxyphenyl)-5-fluoro-N2-(indazoline-6-yl)-2,4-pyrimidinediamine]"
0.274 µM,> 10 µM,–,–,"Fc1cnc(Nc2ccc3[nH]ncc3c2)nc1Nc1ccc2c(c1)OC(F)(F)O2 [R935373, N4-(3,4-Difluoromethylendioxyphenyl)-5-fluoro-N2-(indazoline-5-yl)-2,4-pyrimidinediamine]"
0.356 µM,> 10 µM,–,–,"Fc1cnc(Nc2ccc3cn[nH]c3c2)nc1Nc1ccc2c(c1)OC(F)(F)O2 [R935374, N4-(3,4-Difluoromethylendioxyphenyl)-5-fluoro-N2-(indazoline-6-yl)-2,4-pyrimidinediamine]"
0.566 µM,> 10 µM,–,–,"CNC(=O)CCn1ncc2cc(Nc3ncc(F)c(Nc4ccc(Cl)nc4)n3)ccc21 [R935378, N4-(6-Chloro-3-pyridyl)-5-fluoro-N2-[1-[2(N-methylaminocarbonyl)ethyl]indazoline-5-yl]-2,4-pyrimidinediamine]"
0.401 µM,3.02 µM,–,–,"CC(C)(C)c1cccc(Nc2nc(Nc3cccc(OCCO)c3)ncc2F)c1 [R940282, N4-(3-tert-Butylphenyl)-5-fluoro-N2-[3-(2-hydroxyethyleneoxy)phenyl]-2,4-pyrimidinediamine]"
0.337 µM,7.08 µM,–,–,"CC(C)c1cccc(Nc2nc(Nc3ccc4oc(CO)cc4c3)ncc2F)c1 [R940286, 5-Fluoro-N4-(3-isopropylphenyl)-N2-[(2-hydroxymethylene]benzofur-5-yl]-2,4-pyrimidinediamine]"
0.288 µM,7.68 µM,–,–,"CC(C)(C)c1cccc(Nc2nc(Nc3ccc4oc(CO)cc4c3)ncc2F)c1 [R940287, N4-(3-tert-Butylphenyl)-5-fluoro-N2-[(2-hydroxymethylene)benzofur-5-yl]-2,4-pyrimidinediamine]"
0.208 µM,> 10 µM,–,–,"CNC(=O)COc1cccc(Nc2ncc(F)c(Nc3cccc(C(C)C)c3)n2)c1 [R940288, 5-Fluoro-N4-(3-isopropylphenyl)-N2-[3-(N-methylamino)carbonylmethyleneoxyphenyl]-2,4-pyrimidinediamine]"
0.272 µM,> 10 µM,–,–,"CC(C)c1cccc(Nc2nc(Nc3cccc(OCCO)c3)ncc2F)c1 [R940289, 5-Fluoro-N2-[3-(2-hydroxyethyleneoxy)phenyl]-N4-(3-isopropylphenyl)-2,4-pyrimidinediamine]"
0.683 µM,> 10 µM,–,–,"OCCOc1cccc(Nc2ncc(F)c(Nc3ccc(CO)c(CO)c3)n2)c1 [R940292, N4-[3,4-Bis(hydroxymethyl)phenyl]-5-fluoro-N2-[3-(2-hydroxyethyleneoxy)phenyl]-2,4-pyrimidinediamine]"
0.126 µM,8.81 µM,–,–,"CC(C)(C)c1cccc(Nc2nc(Nc3cccc(OCC(=O)NCCO)c3)ncc2F)c1 [R940295, N4-(3-tert-Buthylpheny)-5-fluoro-N2-[3-(N-2-hydroxyethylamino)carbonylmethyleneoxyphenyl]-2,4-pyrimidinediamine]"
0.41 µM,> 10 µM,–,–,"CC(C)(C)c1cccc(Nc2nc(Nc3cccc(OCC(=O)NC(CO)CO)c3)ncc2F)c1 [R940296, N4-(3-tert-Butylpheny)-N2-[3-(N-1,3-dihydroxypropyl-2-amino)carbonylmethyleneoxyphenyl]-5-fluoro-2,4-pyrimidinediamine]"
0.291 µM,> 10 µM,–,–,"CC(C)c1cccc(Nc2nc(Nc3cccc(OCC(=O)NC[C@@H](O)CO)c3)ncc2F)c1 [R940307, (R)—N2-[3-(dihydroxypropylaminocarbonylmethyleneoxy)-phenyl]-5-fluoro-N4-(3-isopropylphenyl)-2,4-pyrimidinediamine]"
